In patent US9199959B2, “HIV replication inhibitor” (Shionogi & Co., Ltd., priority 2011, dated 2015):

What was measured:
CYP1A2 = molecular target: T1, CYP1A2 (Homo sapiens, UniProt P05177); test: CYP inhibition assay, 7-ethoxyresorufin O-deethylation; format: in vitro ADME; conditions: pooled human liver microsomes, probe 7-ethoxyresorufin (O-deethylation), 0.5 μmol/L, pooled human hepatic microsome
T1 construct: enzyme, pooled human hepatic microsome 0.2 mg protein/mL; from tissue; host or cells: pooled human liver microsomes
T1 sequence (P05177 1-516): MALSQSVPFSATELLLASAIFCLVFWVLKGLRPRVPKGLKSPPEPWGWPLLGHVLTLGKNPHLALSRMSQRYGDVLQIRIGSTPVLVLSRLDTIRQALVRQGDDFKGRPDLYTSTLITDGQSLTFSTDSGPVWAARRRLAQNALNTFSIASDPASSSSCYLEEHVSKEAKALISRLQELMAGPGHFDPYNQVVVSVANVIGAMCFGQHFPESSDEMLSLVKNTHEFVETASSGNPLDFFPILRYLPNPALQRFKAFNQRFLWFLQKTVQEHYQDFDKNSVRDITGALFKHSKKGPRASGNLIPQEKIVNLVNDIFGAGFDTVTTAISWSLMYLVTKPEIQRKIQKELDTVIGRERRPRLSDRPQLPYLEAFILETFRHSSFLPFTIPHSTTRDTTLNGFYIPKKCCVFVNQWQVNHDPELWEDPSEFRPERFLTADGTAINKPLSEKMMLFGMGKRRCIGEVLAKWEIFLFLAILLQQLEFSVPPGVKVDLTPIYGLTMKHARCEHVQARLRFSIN
Protocol: (§1) Using commercially available pooled human hepatic microsome, and employing, as markers, 7-ethoxyresorufin O-deethylation (CYP1A2), tolbutamide methyl-hydroxylation (CYP2C9), mephenytoin 4′-hydroxylation (CYP2C19), dextromethorphan O-demethylation (CYP2D6), and terfenedine hydroxylation (CYP3A4) as typical substrate metabolism reactions of human main five CYP enzyme forms (CYP1A2, 2C9, 2C19, 2D6, 3A4), an inhibitory degree of each metabolite production amount by a test compound was assessed.
(§2) The reaction conditions were as follows: substrate, 0.5 μmol/L ethoxyresorufin (CYP1A2), 100 μmol/L tolbutamide (CYP2C9), 50 μmol/L S-mephenytoin (CYP2C19), 5 μmol/L dextromethorphan (CYP2D6), 1 μmol/L terfenedine (CYP3A4); reaction time, 15 minutes; reaction temperature, 37° C.; enzyme, pooled human hepatic microsome 0.2 mg protein/mL; test drug concentration, 1, 5, 10, 20 μmol/L (four points).
(§3) Each five kinds of substrates, human hepatic microsome, and a test drug in 50 mmol/L Hepes buffer as a reaction solution was added to a 96-well plate as the composition as described above, NADPH, as a cofactor was added to initiate metabolism reactions as markers and, after the incubation at 37° C. for 15 minutes, a methanol/acetonitrile=1/1 (v/v) solution was added to stop the reaction. After the centrifugation at 3000 rpm for 15 minutes, resorufin (CYP1A2 metabolite) in the supernatant was quantified by a fluorescent multilabel counter and tolbutamide hydroxide (CYP2C9 metabolite), mephenytoin 4′ hydroxide (CYP2C19 metabolite), dextrorphan (CYP2D6 metabolite), and terfenadine alcohol (CYP3A4 metabolite) were quantified by LC/MS/MS.
(§4) A reaction system containing only DMSO which is a solvent for dissolving a drug was adopted as a control (100%), and the remaining activity (%) was calculated, then IC50 was calculated by reverse presumption with a logistic model using a concentration and an inhibition rate.

CYP2D6 = molecular target: T2, CYP2D6 (Homo sapiens, UniProt P10635); test: CYP inhibition assay, dextromethorphan O-demethylation; format: in vitro ADME; conditions: pooled human liver microsomes, probe dextromethorphan (O-demethylation), 5 μmol/L, pooled human hepatic microsome
T2 construct: enzyme, pooled human hepatic microsome 0.2 mg protein/mL; from tissue; host or cells: pooled human liver microsomes
Protocol: as §1, §2, §3, §4

[1] = Metabolism stability test, human liver microsomes; format: in vitro ADME; conditions: 30 minutes, 37° C., amount at 0 minute = 100%
Protocol: Commercially available pooled human hepatic microsomes and a test compound were reacted for a constant time, then a remaining rate was calculated by comparing a reacted sample and an unreacted sample, thereby a degree of metabolism of the test compound in liver was assessed. A reaction was performed (oxidative reaction) at 37° C. for 0 minute or 30 minutes in the presence of 1 mmol/L NADPH in 0.2 mL of a buffer (50 mmol/L Tris-HCl, pH 7.4, 150 mmol/L potassium chloride, 10 mmol/L magnesium chloride) containing 0.5 mg protein/mL of human liver microsomes. After the reaction, 50 μl, of the reaction solution was added to 100 μL of a methanol/acetonitrile=1/1 (v/v), mixed and centrifuged at 3000 rpm for 15 minutes. The test compound in the supernatant was quantified by LC/MS/MS, and a remaining amount of the test compound after the reaction was calculated, letting a compound amount at 0 minute reaction time to be 100%. Hydrolysis reaction was performed in the absence of NADPH and glucuronidation reaction was in the presence of 5 mM UDP-glucuronic acid in place of NADPH, followed by similar operations.

[2] = Metabolism stability test, rat liver microsomes; format: in vitro ADME; conditions: amount at 0 minute = 100%
[3] = Solubility test, 1% DMSO addition, artificial intestinal juice pH 6.8; format: physicochemical; conditions: artificial intestinal juice with 1% DMSO, fassgf or other biorelevant, kinetic from dmso stock; pH 6.8, 1% DMSO addition, 16 hours at 25° C.
Protocol: The solubility of each compound was determined under 1% DMSO addition conditions. A 10 mmol/L solution of the compound was prepared with DMSO, and 6 μL of the solution was added to 594 μL of an artificial intestinal juice (water and a 118 mL solution of 0.2 mol/L NaOH reagent are added to 250 mL of 0.2 mol/L potassium dihydrogen phosphate reagent to reach 1000 mL) with a pH of 6.8. The mixture is left standing for 16 hours at 25° C., and the mixture is vacuum-filtered. The filtrate is two-fold diluted with methanol/water=1/1 (v/v), and the compound concentration in the filtrate is measured with HPLC or LC/MS/MS by the absolute calibration method.

T2 sequence (P10635 whole entry): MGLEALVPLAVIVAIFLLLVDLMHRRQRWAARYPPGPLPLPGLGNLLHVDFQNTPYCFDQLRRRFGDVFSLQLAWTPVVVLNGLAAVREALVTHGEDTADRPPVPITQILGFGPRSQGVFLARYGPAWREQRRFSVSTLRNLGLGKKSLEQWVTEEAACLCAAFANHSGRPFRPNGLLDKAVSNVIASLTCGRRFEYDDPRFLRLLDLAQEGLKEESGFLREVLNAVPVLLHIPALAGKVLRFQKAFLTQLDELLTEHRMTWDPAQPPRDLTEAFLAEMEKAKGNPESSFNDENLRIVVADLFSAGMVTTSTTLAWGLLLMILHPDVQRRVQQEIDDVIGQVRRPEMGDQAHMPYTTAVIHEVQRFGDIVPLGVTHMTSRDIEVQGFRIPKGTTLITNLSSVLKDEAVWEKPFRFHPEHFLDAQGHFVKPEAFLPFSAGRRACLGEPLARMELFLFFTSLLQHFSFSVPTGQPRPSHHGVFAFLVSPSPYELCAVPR

Compound: CC(=O)Nc1c(C)c(C(OC(C)(C)C)C(=O)O)c(-c2ccc(C)c(C)c2)c(C)c1-c1ccc(C)c(C)c1 (centres unmarked) [Compound I-6]
- IC50 at 15 min (CYP1A2): ≥ 20 µM
- IC50 at 15 min (CYP2D6): ≥ 20 µM
- remaining amount of compound in liver microsomes of human [1]: 79%
- remaining amount of compound in liver microsomes of rat [2]: 58%
- solubility at 16 h [3]: ≥ 50 µM
